In assay [1] the test system is OA chondrocytes. The assay is described as follows: RT-qPCR gene expression after drug treatment. Format: cell-based, human. To be noted: 48 hours; for MMP13 expression: OA patients n=3. The method, then:
Cells for RNA extraction were collected in RNA lysis buffer (Zymo Research) and processed according to the manufacturer's specifications for the Quick-RNA MicroPrep Kit (Zymo Research, R1051), including the optional DNAse1 digestion. RNA quality and quantity was measured using the Nanodrop 1000 Spectrophotometer. All samples had A260/280 scores between 1.6-1.8.
[…] of RNA from each sample was reversed transcribed into cDNA using the High Capacity cDNA Reverse Transcription Kit (Applied Biosystems, 4368813). Quantitative PCR was performed using TaqMan gene-specific expression assays, FAM-labeled, for metalloproteinase 3, 9, a 13 (Hs00233962_m1, Hs00957562_m1, Hs00233992_m1), with a universal mastermix (Applied Biosystems, 4369016). Gene expression levels were normalized with FAM-labeled Actin-beta (Hs01060665_g1).
For Tfam, CD24 and PGC1a, we utilized the SybrGreen mastermix (Applied Biosystems, A25742) according to manufacturer's specifications. Primer sequences: Tfam_F: 5′-GCTCAGAACCCAGATGCA AAA-3′, Tfam_R 5′-AGGAAGTTCCCTCCAACGC-3′, PGCla_F: 5′-[…]-3′, PGC1a_R: 5′-[…]-3′, CD24_F: 5′-TACCCACGCAGATTTATT-3′, CD24_R: 5′-AGA GTGAGACCACGAAGA-3′, Actin_F 5′-CACCAACTGGGACGACAT-3′, Actin_R: 5′-ACAGCCTGGATAGCAACG-3′. qPCR reactions included a 2-minute incubation at 50° C. to inactivate previous amplicons with uracil-DNA glycosylase, followed by a 10-minute incubation at 95° C. to activate the Taq polymerase. The amplification cycle, consisting of 15 seconds at 95° C., and 1 minute at 60° C., was repeated 40 times. The relative expression levels were determined using the ΔCt method (CT gene of interest−CT internal control−Actin) and relative gene expression is calculated using 2−ΔCt method and plotted.
(§1) OA cells were seeded at high density in 12-well plates and treated with control (DMSO) or drug next day for 48 hours. Drug doses were determined based on prior literature and validation-: 0.5 mM 3-Isobutyl-1-methylxanthine (IBMX, Sigma 15879) (See for example Ref. 33), 50 μM JNK Inhibitor II (Calbiochem 420119), 25 μM NFK-B inhibitor BMS-345541 (Sigma B9935) (See for example Ref 30, 43), 50 μM Alk inhibitor, SB 431542 hydrate (Sigma S4317 (See for example Ref. 44, 45) and 25 uM Kartogenin (Sigma SML0370) (See for example Ref. 24-26) were used with appropriate dilution in DMSO.

Assay [2] deals with OA chondrocytes. The assay is described as follows: Human 62-plex Luminex array of secretome after drug treatment. To be noted: for CCL2 secretion / CCL7 secretion: 48 hours vs DMSO/control, 50 μM JNK Inhibitor II, 25 μM BMS-345541, 50 μM SB 431542, 0.5 mM IBMX, combination compared to JNK inhibitor alone. In kind it is cell-based. Here is the method: Next, experiments were conducted to explore the functional effects of inhibiting these newly identified Inf-A cells in OA cartilage by capitalizing on their distinct signalling through JNK. Chondrocytes derived from 6 patients were cultured for 48-hours in the presence of JNK II inhibitor and the secretome was analyzed via 62 antibody human Luminex panels. Across all six patients, a variety of cytokines were altered, many trending toward significance. […] CCL2 and 7 are well-established chemoattractants for monocytes and are known to be altered during OA progression (see for example Ref 28). Genetic deletions of CCL2 and its receptor CCR2 prevent the development of surgical OA, further underscoring the importance of CCL2 as a key modulator in pathology (see for example Ref. 28). […] As a complementary approach, SMAD1/5, the other exclusive signaling pathway of the Inf-A cells was inhibited using an ALK inhibitor. ALK receptors are the most common upstream target of SMAD1/5 signaling in OA (See for example Ref. 31).
as §1
Cell culture supernatants were collected and spun down at 10,000×g for 10 min at 4° C. to remove any cells or cell debris and then snap frozen in liquid nitrogen, before performing the assay. This assay was performed in the Human Immune Monitoring Center at Stanford University. Human 62-plex kits were purchased from eBiosciences/Affymetrix and used according to the manufacturer's recommendations with modifications as described below. Briefly, beads were added to a 96-well plate and washed in a Biotek ELx405 washer. Undiluted samples were added to the plate containing the mixed antibody-linked beads and incubated at room temperature for 1 hour followed by overnight incubation at 4° C. with shaking. Cold and room temperature incubation steps were performed on an orbital shaker at 500-600 rpm. Following the overnight incubation plates were washed in a Biotek ELx405 washer and then biotinylated detection antibody added for 75 minutes at room temperature with shaking. Plate was washed as above and streptavidin-PE was added. After incubation for 30 minutes at room temperature wash was performed as above and reading buffer was added to the wells. Each sample was measured in duplicate. Plates were read using a Luminex 200 instrument with a lower bound of 50 beads per sample per cytokine. Custom assay Control beads by Radix Biosolutions were added to all wells.

The subject of assay [3] is post-traumatic osteoarthritis (PTOA). The assay is described as follows: Mouse model of post-traumatic osteoarthritis (tibial loading), OARSI histological scoring. In kind it is in vivo, wildtype C57BL mice. The following applies: 50 uM, 8 weeks post-injury vs control; for OA progression: intra-articular, 2 injections every week starting 1 week after tibial loading. Here is the method: Using a mouse model of post-traumatic osteoarthritis (PTOA) wherein mechanical loading can lead to onset and progression of OA (Christiansen et al. 2012), Applicant tested if early intervention with small molecule modulators of the Inf A populations can modulate the onset or progression of OA in vivo. For these experiments, wildtype C57BL mice were injected with (a) control or (b) Inf-A inhibitor (JNK II inhibitor) OA initiation to test whether these putative modulations can be therapeutic in OA. The injections were given starting 1 week after tibial loading and at a frequency of 2 injections every week to ensure their efficacy. For histological assessment, the OARSI scoring criteria was utilized to grade the OA severity with the score of 0-6 grades ranging from intact cartilage to erosion and deformation of cartilage/bone. For the quantification of OA development in each control or injured joint, 6 sagittal sections (4 μm thickness) spaced 50 μm are typically cut and stained in order to cover the whole joint compartment. A maximum score for the overall section (both tibial plateau and femoral condyle) is obtained after assigning the most severe damage score for each section and averaging the scores; a summit score (sum of the calculated scores) is calculated as a measure of the prevalent damage over the whole joint.

Assay [4] deals with OA chondrocytes. The assay is described as follows: cyTOF profiling of CPC cluster abundance after kartogenin treatment. Format: cell-based, human. To be noted: 25 uM kartogenin vs DMSO, 48 hours.
Text: Experiments were undertaken to understand how the application of a pro-regenerative drug would affect this CPC landscape, specifically the pro-inflammatory CPCs four in Group C. Kartogenin (KGN) was originally identified in a screen to expand mesenchymal stem cells and has since been shown in multiple studies to be a pro-chondrogenic modulator of OA progression in animal models (See for example Ref. […]). One patient from Group C (OA15) and one patient from Group A (OA5) were utilized. One patient from Group A (OA5) and one patient from Group C (OA15) were treated with kartogenin or control (DMSO) for 48 hours, fixed, stained and profiled by cyTOF as previously described. […] The treatment additionally expanded low-inflammation clusters 7 and 11 in the Group A patient, where they already appeared overrepresented, while these clusters were not expanded in the Group C patient. Furthermore, kartogenin reduced pro-inflammtory clusters 9, 12 in both the patients, though to a greater degree in the Group C patient enriched in those subtypes (FIG. 3G). Overall, kartogenin appears to expand normal-like and low inflammation CPC clusters (2, 10, 7 and 11) while reducing the high inflammation CPC III clusters (12 and 16).
as §1
OA cells were cultured to confluence in 10 cm dishes. On the collection day, cells were stained with 25 μM Idu for 15 min at 37° C. in the cell incubator, then with 0.5 μM cisplatin for 5 min at RT. Cells were then lifted with 0.25% Trypsin-EDTA (Gibco) for 15 min at 37° C. Trypsin was quenched using media containing 10% FBS and cell were washed 3 times with PBS to remove any trace amounts of trypsin. Cells were fixed after straining through a […] strainer in 1.6% PFA for 10 min at RT. Cells were washed 4 times with cells staining media, counted and frozen in 1 million cell aliquots in a small amount of cell staining media at −80° C. To stain, cells were thawed on ice and barcoded using the Cell-ID 20-plex Pd Barcoding Kit (Fluidigm) according to the manufacturer's specifications. After barcoding, cells were labeled as previously described (See for example Ref 13). Briefly, all barcoded samples were combined into one FACs tube, and washed 3× with cell staining media and stained with the cell surface antibodies for 30 minutes at RT according to the concentrations in Table 2. Cells were then was 2× with cell staining media and permeabilized with 1 mL of cold methanol added dropwise with continuous gentle vortexing. Cells were incubated for 10 min on ice, with gentle vortexing every 2-3 minutes to avoid cell clumping, then washed in cell staining media and stained with the intracellular antibodies for 30 minutes at RT. After 2× washed with cell staining media, cells were resuspended in 1.6% PFA with Cell-ID Intercalator-Ir (Fluidigm) used at 1:2000. Cells were measured using the cyTOF 2 (Fluidigm) and injected using the supersampler. […]

[5] abbreviates: 48 hours vs DMSO, 50 μM SB 431542, combination compared to JNK inhibition alone.

Entries after “also recorded” stand apart in the source; their conditions may differ.

With `CC(C)Cn1c(=O)n(C)c(=O)c2[nH]cnc21` [IBMX, 3-Isobutyl-1-methylxanthine], the “upregulation of CD24 expression” value in the assay on OA chondrocytes [1] (0.5 mM IBMX) is 2-4 fold. For the same compound, the MMP13 expression entry with OA chondrocytes [1] is listed as “no consistent effect; also recorded: No significant differences”. For the same compound, in the assay with OA chondrocytes [1] (IBMX), the Pgc1a gene expression result was “increased” and the Tfam gene expression result is reported as “increased”. In the assay on OA chondrocytes [2], the CCL2 secretion entry is given as “modest downregulation” and the CCL7 secretion result was “modest downregulation”.

Take `O=C1c2ccccc2-c2n[nH]c3cccc1c23` [JNK II inhibitor]: in assay [3], the “max score (OARSI)” value was “reduced”, the “summit score (OARSI)” value is reported as “reduced” and the OA progression result is on record as “slowed”. Also, the OA progression result in assay [3] (listed as JNKII inhibitor) was “slows down progression”. In the assay on OA chondrocytes [1], the MMP gene expression result was “remained unaffected” and the MMP13 expression result was “No significant differences”. Further, in the assay on OA chondrocytes [2], the CCL2 secretion result is “significant decrease” and the CCL7 secretion result is given as “significant decrease”. In the assay with OA chondrocytes [2] (listed as INK inhibitor), the CCL2 secretion entry is “overall reduction” and the CCL7 secretion entry was “overall reduction”.

On to `NC(=O)c1ccc(-c2nc(-c3ccc4c(c3)OCO4)c(-c3ccccn3)[nH]2)cc1` [ALK inhibitor, SB 431542 hydrate], for which, in the assay on OA chondrocytes [2], the CCL2 secretion result is “decrease” and the CCL7 secretion result is listed as “decrease”. Moreover, in the assay on OA chondrocytes [2] (setting [5]), the CXCL1 secretion entry is given as “decrease” and the CXCL5 secretion result is on record as “decrease”.

Take `Cc1ccc2nc(NCCN)c3ncc(C)n3c2c1` [BMS-345541]: in the assay with OA chondrocytes [2], the CCL2 secretion entry is on record as “did not affect” and the CCL7 secretion entry was “did not affect”.

Regarding `O=C(O)c1ccccc1C(=O)Nc1ccc(-c2ccccc2)cc1` [Kartogenin], the “abundance of low-inflammation clusters 7 and 11” value with OA chondrocytes [4] (Group A patient (OA5)) was “expanded”; in the assay on OA chondrocytes [4] (Group C patient (OA15)), “not expanded”. In addition, the “abundance of pro-inflammatory clusters 9, 12” value in the assay with OA chondrocytes [4] (both patients) is “reduced”. Also, in the assay on OA chondrocytes [4] (both patients (OA5 Group A, OA15 Group C)), the “abundance of cluster 2 (CPC I) and cluster 10 (CPC II)” value is recorded as “selectively expanded”. Further, the “abundance of high inflammation CPC III clusters (12 and 16)” value in the assay with OA chondrocytes [4] (overall summary) is “reducing”.

The record behind these values is patent US20220347182A1, “METHODS AND COMPOSITIONS FOR THE TREATMENT OF OSTEOARTHRITIS” (The Board of Trustees of the Leland Stanford Junior …, priority 2019, published 2022).
